Assay results published in patent publication US20240299285A1, “PERSONAL CARE COMPOSITION” (The Procter & Gamble Company, priority 2023, published 2024).

Assay: Solubility Method (cooling/heating cycles, % transmittance, visual precipitate check)
Type: physicochemical
Details: SLT:SMLT 10.5:1, co-surfactant 1 % or 4 %, pH 5.2
Description: This method can be used to determine the solubility characteristics of a material (e.g., an acyl taurate) in a composition. The method uses heating and cooling cycles to simulate environmental conditions commonly experienced by a personal care product and accelerate the processes that can lead to product instability.
The test composition (e.g., an aqueous surfactant composition consisting of an acyl taurate surfactant and an N-alkyl acyl taurate surfactant and/or a co-surfactant, and/or a cationic polymer and water) is placed in a closed container to prevent evaporation and heated at 40° C. for a minimum of 30 minutes or until the composition is visually clear & free of precipitates. One mL of the test solution is added to a Crystal-16 vial, closed with a basic cap and placed into a Technobis Crystallization Systems Crystal16® Model 2.2 or equivalent. The % transmittance readings are set to record 1 measurement every 300 seconds. The vials are cooled to 5° C. at a rate of 0.25° C./min and held at 5° C. for 8 hours (cooling cycle). The vials are then heated to 20° C. at a rate of 0.25° C./min and held at 20° C. for 8 hours (heating cycle). […] When the final % T recorded at the end of the heating cycle is greater than or equal to 90% and no precipitate is observed the sample is considered soluble.

sodium lauroamphoacetate
effect of co-surfactant on acyl taurate (SLT) solubility: did not provide the desired solubility

cocamidopropyl hydroxysultaine [CAPHS]
effect of co-surfactant on acyl taurate (SLT) solubility: did not provide the desired solubility
